From patent US20070208005A1, “TETRAHYDROBENZAZEPINES AS ANTAGONISTS AND/OR REVERSE AGONISTS OF THE HISTAMINE H3 RECEPTOR” (priority 2004, published 2007)

Molecular target: T1, histamine H3 receptor (Homo sapiens, UniProt Q9Y5N1)
T1 construct: expressed in transfected cells; host or cells: CHO K1 cells (pSwitch/pGene GeneSwitch system, mifepristone-induced), clone 3H3; membranes
Experiment: Histamine H3 functional antagonist assay ([35S]-GTPγS SPA on membranes of H3 cells)
Format: biochemical
Conditions: membrane prepared from cultured H3 cells (CHO K1, human H3); histamine at EC80; averages of a number of experiments; read-out: functional pKi (fpKi), H3 functional antagonist assay (converted)
Excerpt: A membrane preparation containing histamine H3 receptors may be prepared in accordance with the following procedures:
(i) Generation of Histamine H3 Cell Line
DNA encoding the human histamine H3 gene (Huvar, A. et al. (1999) Mol. Pharmacol. 55(6), 1101-1107) was cloned into a holding vector, pcDNA3.1 TOPO (InVitrogen) and its cDNA was isolated from this vector by restriction digestion of plasmid DNA with the enzymes BamH1 and Not-1 and ligated into the inducible expression vector pGene (InVitrogen) digested with the same enzymes. The GeneSwitch™ system (a system where in transgene expression is switched off in the absence of an inducer and switched on in the presence of an inducer) was performed as described in U.S. Pat. Nos. 5,364,791; 5,874,534; and 5,935,934. Ligated DNA was transformed into competent DH5α E. coli host bacterial cells and plated onto Luria Broth (LB) agar containing Zeocin™ (an antibiotic which allows the selection of cells expressing the sh ble gene which is present on pGene and pSwitch) at 50 μg ml^−1. Colonies containing the re-ligated plasmid were identified by restriction analysis. DNA for transfection into mammalian cells was prepared from 250 ml cultures of the host bacterium containing the pGeneH3 plasmid and isolated using a DNA preparation kit (Qiagen Midi-Prep) as per manufacturers guidelines (Qiagen). CHO K1 cells previously transfected with the pSwitch regulatory plasmid (InVitrogen) were seeded at 2×10e6 cells per T75 flask in Complete Medium, containing Hams F12 (GIBCOBRL, Life Technologies) medium supplemented with 10% v/v dialysed foetal bovine serum, L-glutamine, and hygromycin (100 μg ml^−1), 24 hours prior to use. Plasmid DNA was transfected into the cells using Lipofectamine plus according to the manufacturers guidelines (InVitrogen). 48 hours post transfection cells were placed into complete medium supplemented with 500 μg ml^−1 Zeocin™.
10-14 days post selection 10 nM Mifepristone (InVitrogen), was added to the culture medium to induce the expression of the receptor. 18 hours post induction cells were detached from the flask using ethylenediamine tetra-acetic acid (EDTA; 1:5000; InVitrogen), following several washes with phosphate buffered saline pH 7.4 and resuspended in Sorting Medium containing Minimum Essential Medium (MEM), without phenol red, and supplemented with Earles salts and 3% Foetal Clone II (Hyclone). Approximately 1×10e7 cells were examined for receptor expression by staining with a rabbit polyclonal antibody, 4a, raised against the N-terminal domain of the histamine H3 receptor, incubated on ice for 60 minutes, followed by two washes in sorting medium. Receptor bound antibody was detected by incubation of the cells for 60 minutes on ice with a goat anti rabbit antibody, conjugated with Alexa 488 fluorescence marker (Molecular Probes). Following two further washes with Sorting Medium, cells were filtered through a 50 μm Filcon™ (BD Biosciences) and then analysed on a FACS Vantage SE Flow Cytometer fitted with an Automatic Cell Deposition Unit. Control cells were non-induced cells treated in a similar manner. Positively stained cells were sorted as single cells into 96-well plates, containing Complete Medium containing 500 μg ml^−1 Zeocin™ and allowed to expand before reanalysis for receptor expression via antibody and ligand binding studies. One clone, 3H3, was selected for membrane preparation.
(ii) Membrane Preparation from Cultured Cells
All steps of the protocol are carried out at 4° C. and with pre-cooled reagents. The cell pellet is resuspended in 10 volumes of homogenisation buffer (50 mM N-2-hydroxyethylpiperazine-N′-2-ethanesulfonic acid (HEPES), 1 mM ethylenediamine tetra-acetic acid (EDTA), pH 7.4 with KOH, supplemented with 10e-6M leupeptin (acetyl-leucyl-leucyl-arginal; Sigma L2884), 25 μg/ml bacitracin (Sigma B0125), 1 mM phenylmethylsulfonyl fluoride (PMSF) and 2×10e-6M pepstain A (Sigma)). […]

T1 sequence (Q9Y5N1 whole entry): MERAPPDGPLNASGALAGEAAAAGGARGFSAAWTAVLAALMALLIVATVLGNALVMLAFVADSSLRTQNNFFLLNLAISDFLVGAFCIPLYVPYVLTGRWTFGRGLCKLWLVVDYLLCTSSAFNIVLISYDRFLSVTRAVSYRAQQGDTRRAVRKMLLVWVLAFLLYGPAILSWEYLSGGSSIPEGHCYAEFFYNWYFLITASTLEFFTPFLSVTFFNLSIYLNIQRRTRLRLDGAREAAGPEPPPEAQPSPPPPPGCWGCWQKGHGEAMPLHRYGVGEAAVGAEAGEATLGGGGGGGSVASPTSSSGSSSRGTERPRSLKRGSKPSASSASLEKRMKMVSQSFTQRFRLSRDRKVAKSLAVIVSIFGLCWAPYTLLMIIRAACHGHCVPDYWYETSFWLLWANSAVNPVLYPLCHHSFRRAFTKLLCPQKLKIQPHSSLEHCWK

Structure (SMILES)	Ki [nM]
O=C1CCCN1c1ccc(Cc2ccc3c(c2)CCN(C2CCCC2)CC3)cn1 [Example E37, 1-{5-[(3-cyclopentyl-2,3,4,5-tetrahydro-1H-3-benzazepin-7-yl)methyl]-2-pyridinyl}-2-pyrrolidinone]	< 3.16
c1ncn(-c2ccc(Cc3ccc4c(c3)CCN(C3CCC3)CC4)cc2)n1 [Example E60, 3-cyclobutyl-7-{[4-(1H-1,2,4-triazol-1-yl)phenyl]methyl}-2,3,4,5-tetrahydro-1H-3-benzazepine]	< 0.316
N#Cc1ccc(Cc2ccc3c(c2)CCN(C2CCC2)CC3)cn1 [Example E12, 5-[(3-Cyclobutyl-2,3,4,5-tetrahydro-1H-3-benzazepin-7-yl)methyl]-2-pyridinecarbonitrile]	< 3.16
O=C(NC1CCOCC1)c1ccc(Cc2ccc3c(c2)CCN(C2CCC2)CC3)cc1 [Example E50, 4-[(3-cyclobutyl-2,3,4,5-tetrahydro-1H-3-benzazepin-7-yl)methyl]-N-(tetrahydro-2H-pyran-4-yl)benzamide]	< 3.16
CNC(=O)c1ccc(Cc2ccc3c(c2)CCN(C2CCC2)CC3)cn1 [Example E26, 5-[(3-Cyclobutyl-2,3,4,5-tetrahydro-1H-3-benzazepin-7-yl)methyl]-N-methyl-2-pyridinecarboxamide]	< 3.16
O=C(NCC(F)(F)F)c1cnc(Cc2ccc3c(c2)CCN(C2CCC2)CC3)cn1 [Example E23, 5-[(3-Cyclobutyl-2,3,4,5-tetrahydro-1H-3-benzazepin-7-yl)methyl]-N-(2,2,2-trifluoroethyl)-2-pyrazinecarboxamide]	< 3.16
O=C(NC1CCOCC1)c1ccc(Cc2ccc3c(c2)CCN(C2CCC2)CC3)cn1 [Example E55, 5-[(3-cyclobutyl-2,3,4,5-tetrahydro-1H-3-benzazepin-7-yl)methyl]-N-(tetrahydro-2H-pyran-4-yl)-2-pyridinecarboxamide]	< 3.16
NC(=O)c1ccc(Cc2ccc3c(c2)CCN(C2CCC2)CC3)cn1 [Example E27, 5-[(3-Cyclobutyl-2,3,4,5-tetrahydro-1H-3-benzazepin-7-yl)methyl]-2-pyridinecarboxamide]	< 3.16
c1cnc(Cc2ccc3c(c2)CCN(C2CCC2)CC3)cn1 [Example E30, 3-Cyclobutyl-7-(2-pyrazinylmethyl)-2,3,4,5-tetrahydro-1H-3-benzazepine]	< 3.16
c1cnn(-c2ccc(Cc3ccc4c(c3)CCN(C3CCC3)CC4)cc2)c1 [Example E59, 3-cyclobutyl-7-{[4-(1H-pyrazol-1-yl)phenyl]methyl}-2,3,4,5-tetrahydro-1H-3-benzazepine]	< 0.316
O=c1nc(-c2ccc(Cc3ccc4c(c3)CCN(C3CCC3)CC4)cc2)[nH]o1 [Example E58, 3-{4-[(3-cyclobutyl-2,3,4,5-tetrahydro-1H-3-benzazepin-7-yl)methyl]Phenyl}-1,2,4-oxadiazol-5(2H)-one]	< 3.16
CN(C)C(=O)c1ccc(Cc2ccc3c(c2)CCN(C2CCC2)CC3)cc1 [Example E17, 4-[(3-Cyclobutyl-2,3,4,5-tetrahydro-1H-3-benzazepin-7-yl)methyl]-N,N-dimethylbenzamide]	< 3.16
Cc1noc(-c2ccc(Cc3ccc4c(c3)CCN(C3CCC3)CC4)cn2)n1 [Example E14, 3-Cyclobutyl-7-{[6-(3-methyl-1,2,4-oxadiazol-5-yl)-3-pyridinyl]methyl}-2,3,4,5-tetrahydro-1H-3-benzazepine]	< 3.16
CC(C)NC(=O)c1cnc(Cc2ccc3c(c2)CCN(C2CCC2)CC3)cn1 [Example E21, 5-[(3-Cyclobutyl-2,3,4,5-tetrahydro-1H-3-benzazepin-7-yl)methyl]-N-(1-methylethyl)-2-pyrazinecarboxamide]	< 3.16
O=C(c1ccc(Cc2ccc3c(c2)CCN(C2CCC2)CC3)cc1)N1CCOCC1 [Example E19, 3-Cyclobutyl-7-{[4-(4-morpholinylcarbonyl)phenyl]methyl}-2,3,4,5-tetrahydro-1H-3-benzazepine]	< 3.16
O=C(c1ccc(Cc2ccc3c(c2)CCN(C2CCC2)CC3)cc1)N1CCCC1 [Example E49, 3-cyclobutyl-7-{[4-(1-pyrrolidinylcarbonyl)phenyl]methyl}-2,3,4,5-tetrahydro-1H-3-benzazepine]	< 3.16
O=C1CCCN1c1ccc(Cc2ccc3c(c2)CCN(C2CCCC2)CC3)cc1 [Example E36, 1-{4-[(3-Cyclopentyl-2,3,4,5-tetrahydro-1H-3-benzazepin-7-yl)methyl]phenyl}-2-pyrrolidinone]	< 3.16
CNC(=O)c1ccc(Cc2ccc3c(c2)CCN(C2CCC2)CC3)nc1 [Example E42, 6-[(3-cyclobutyl-2,3,4,5-tetrahydro-1H-3-benzazepin-7-yl)methyl]-N-methyl-3-pyridinecarboxamide]	< 3.16
CNC(=O)c1cnc(Cc2ccc3c(c2)CCN(C2CCCC2)CC3)cn1 [Example E35, 5-[(3-Cyclopentyl-2,3,4,5-tetrahydro-1H-3-benzazepin-7-yl)methyl]-N-methyl-2-pyrazinecarboxamide]	< 3.16
Cc1noc(-c2ccc(Cc3ccc4c(c3)CCN(C3CCC3)CC4)nc2)n1 [Example E16, 3-Cyclobutyl-7-{[5-(3-methyl-1,2,4-oxadiazol-5-yl)-2-pyridinyl]methyl}-2,3,4,5-tetrahydro-1H-3-benzazepine]	< 3.16
O=C1CCCN1c1ccc(Cc2ccc3c(c2)CCN(C2CCC2)CC3)cc1 [Example E28, 1-{4-[(3-Cyclobutyl-2,3,4,5-tetrahydro-1H-3-benzazepin-7-yl)methyl]phenyl}-2-pyrrolidinone]	< 3.16
CNC(=O)c1cnc(Cc2ccc3c(c2)CCN(C2CCC2)CC3)cn1 [Example E33, 5-[(3-Cyclobutyl-2,3,4,5-tetrahydro-1H-3-benzazepin-7-yl)methyl]-N-methyl-2-pyrazinecarboxamide]	< 0.316
O=C1CCCN1c1ccc(Cc2ccc3c(c2)CCN(C2CCC2)CC3)cn1 [Example E29, 1-{5-[(3-Cyclobutyl-2,3,4,5-tetrahydro-1H-3-benzazepin-7-yl)methyl]-2-pyridinyl}-2-pyrrolidinone]	< 3.16
Cc1noc(-c2cnc(Cc3ccc4c(c3)CCN(C3CCC3)CC4)cn2)n1 [Example E15, 3-Cyclobutyl-7-{[5-(3-methyl-1,2,4-oxadiazol-5-yl)-2-pyrazinyl]methyl}-2,3,4,5-tetrahydro-1H-3-benzazepine]	< 3.16
NC(=O)c1ccc(Cc2ccc3c(c2)CCN(C2CCC2)CC3)nc1 [Example E44, 6-[(3-cyclobutyl-2,3,4,5-tetrahydro-1H-3-benzazepin-7-yl)methyl]-3-pyridinecarboxamide]	< 3.16
O=C(c1cnc(Cc2ccc3c(c2)CCN(C2CCC2)CC3)cn1)N1CCCC1 [Example E20, 3-Cyclobutyl-7-{[5-(1-pyrrolidinylcarbonyl)-2-pyrazinyl]methyl}-2,3,4,5-tetrahydro-1H-3-benzazepine]	< 3.16
O=C1OCCN1c1ccc(Cc2ccc3c(c2)CCN(C2CCC2)CC3)cn1 [Example E39, 3-{5-[(3-Cyclobutyl-2,3,4,5-tetrahydro-1H-3-benzazepin-7-yl)methyl]-2-pyridinyl}-1,3-oxazolidin-2-one]	< 3.16
CC(=O)Nc1cnc(Cc2ccc3c(c2)CCN(C2CCC2)CC3)cn1 [Example E32, N-{5-[(3-Cyclobutyl-2,3,4,5-tetrahydro-1H-3-benzazepin-7-yl)methyl]-2-pyrazinyl}acetamide]	< 3.16
